Measured values published in US20210038607A1, “OXADIAZOLYLTHIOPHENE DERIVATIVES USEFUL AS HISTONE DEACETYLASE INHIBITORS” (Karus Therapeutics Limited, priority 2018, published 2021).

Columns and labels:
[1] = target: T1, Human HDAC5 (Homo sapiens, UniProt Q9UQL6); assay: HDAC5 biochemical assay, class IIa-specific substrate; conditions: read-out: HDAC Isoform IC50 (nM) 5
T1 construct: full length with C-terminal His tag, MW=51.1 kDa; His (C); host or cells: baculovirus expression system
In short: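 Two-step fluorogenic read-out: deacetylated trifluoroacetyl-lysine AMC substrate (50 μM) digested by developer, measured at Ex/Em 360/460. Deacetylation step: 0.05 ng/ul His-tagged full-length baculoviral enzyme with compound, 30 min, room temperature, pH 8.0 Tris with 1 mg/mL BSA and 1% DMSO.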

[2] = target: T2, Human HDAC2 (Homo sapiens, UniProt Q92769); assay: HDAC2 biochemical assay, AMC-labeled peptide substrate; conditions: read-out: HDAC Isoform IC50 (nM) 2
T2 construct: full length with C-terminal GST-tag; GST (C); host or cells: baculovirus expression system
In short: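 Full-length human HDAC2 with C-terminal GST tag, baculovirus-expressed, at 0.07 ng/ul with 50 μM RHKK(Ac)AMC substrate in Tris-HCl pH8.0 buffer with BSA, 1% DMSO final. Incubated 1 hour at 30° C with compounds, then developer added; fluorescence read at 360/460 Ex/Em.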

[3] = target: T3, Human HDAC11 (Homo sapiens, UniProt Q96DB2); assay: HDAC11 biochemical assay, class IIa-specific substrate; conditions: read-out: HDAC Isoform IC50 (nM) 11
T3 construct: Human HDAC11 (full length); His (N); host or cells: baculovirus expression system
T3 sequence (Q96DB2 1-347): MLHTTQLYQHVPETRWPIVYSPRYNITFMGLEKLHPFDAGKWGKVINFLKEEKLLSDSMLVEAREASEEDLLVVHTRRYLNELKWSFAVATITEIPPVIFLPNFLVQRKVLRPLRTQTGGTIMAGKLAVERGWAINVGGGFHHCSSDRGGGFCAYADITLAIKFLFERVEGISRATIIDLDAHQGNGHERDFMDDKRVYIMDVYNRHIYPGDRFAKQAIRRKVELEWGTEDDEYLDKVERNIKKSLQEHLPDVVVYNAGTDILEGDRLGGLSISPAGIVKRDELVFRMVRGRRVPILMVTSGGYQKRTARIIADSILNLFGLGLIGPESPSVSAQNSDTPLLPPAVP
In short: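 Full-length N-His human HDAC11 from baculovirus, 5 ng/μl, incubated with 50 μM Boc-Lys(trifluoroacetyl)-AMC for 30 min at 30 °C. Buffer: 50 mM Tris-HCl pH 8.0, 137 mM NaCl, 2.7 mM KCl, 1 mM MgCl2, 1 mg/mL BSA, 1% DMSO. Developer releases AMC; fluorescence read at 360/460 nm.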

[4] = target: T4, Complex of human HDAC3 and human NCOR2 (Homo sapiens, UniProt O15379); assay: HDAC3 biochemical assay, AMC-labeled peptide substrate; conditions: read-out: HDAC Isoform IC50 (nM) 3
T4 construct: full length with C-terminal His tag, MW=49.7 kDa; His (C); host or cells: baculovirus expression system (co-expressed)
In short: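 Two-stage fluorogenic read: compounds incubated 1 h at 30° C with 50 μM RHKK(Ac)AMC and 0.1 ng/ul HDAC3–NCOR2(395-489) complex (Tris pH8.0, NaCl, KCl, MgCl2, BSA, 1% DMSO). Developer digestion of deacetylated product gives signal at Ex 360/Em 460.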

[5] = target: T5, Human HDAC7 (Homo sapiens, UniProt Q8WUI4); assay: HDAC7 biochemical assay, class IIa-specific substrate; conditions: read-out: HDAC Isoform IC50 (nM) 7
T5 construct: (a.a. 518-end) with N-terminal GST tag; GST (N); host or cells: baculovirus expression system
T5 sequence (Q8WUI4 518-952 limits assumed): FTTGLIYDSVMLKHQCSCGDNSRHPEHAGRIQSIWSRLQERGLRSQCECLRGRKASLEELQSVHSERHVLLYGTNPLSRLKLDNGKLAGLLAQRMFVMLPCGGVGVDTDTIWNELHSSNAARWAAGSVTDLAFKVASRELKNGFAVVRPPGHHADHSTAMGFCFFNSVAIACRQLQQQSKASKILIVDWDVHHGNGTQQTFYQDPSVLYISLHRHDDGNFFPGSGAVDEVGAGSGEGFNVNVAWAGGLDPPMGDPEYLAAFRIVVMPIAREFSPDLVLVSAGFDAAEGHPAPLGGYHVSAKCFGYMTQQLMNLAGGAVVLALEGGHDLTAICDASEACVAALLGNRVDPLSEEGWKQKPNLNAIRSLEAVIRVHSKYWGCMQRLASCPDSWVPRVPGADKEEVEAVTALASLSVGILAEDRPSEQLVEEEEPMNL
In short: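 Two-step fluorogenic readout: class IIa-selective trifluoroacetyl-lysine AMC substrate (50 μM) deacetylated by N-terminal GST-HDAC7 fragment (0.001 ng/ul), then digested by developer, Ex/Em 360/460. Reaction: 30 min, room temperature, Tris-HCl pH 8.0, NaCl/KCl/MgCl2, 1 mg/mL BSA, 1% DMSO.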

T4 sequence (O15379 whole entry, canonical isoform): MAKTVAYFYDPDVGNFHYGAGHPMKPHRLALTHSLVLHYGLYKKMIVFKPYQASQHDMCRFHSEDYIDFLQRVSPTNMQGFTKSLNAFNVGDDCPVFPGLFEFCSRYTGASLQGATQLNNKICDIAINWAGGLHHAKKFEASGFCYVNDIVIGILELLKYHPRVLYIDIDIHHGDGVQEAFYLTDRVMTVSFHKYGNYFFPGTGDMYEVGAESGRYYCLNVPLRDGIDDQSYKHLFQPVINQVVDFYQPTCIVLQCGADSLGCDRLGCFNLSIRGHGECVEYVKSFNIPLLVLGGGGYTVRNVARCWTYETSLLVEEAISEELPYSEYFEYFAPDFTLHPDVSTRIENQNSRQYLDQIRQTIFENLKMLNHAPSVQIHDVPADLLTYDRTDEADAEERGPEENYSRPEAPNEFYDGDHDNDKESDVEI
T4 sequence (Q9Y618 395-489 partner limits assumed): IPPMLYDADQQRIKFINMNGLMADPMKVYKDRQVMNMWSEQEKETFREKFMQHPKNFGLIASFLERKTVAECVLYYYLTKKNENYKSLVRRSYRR
T2 sequence (Q92769 whole entry, canonical isoform): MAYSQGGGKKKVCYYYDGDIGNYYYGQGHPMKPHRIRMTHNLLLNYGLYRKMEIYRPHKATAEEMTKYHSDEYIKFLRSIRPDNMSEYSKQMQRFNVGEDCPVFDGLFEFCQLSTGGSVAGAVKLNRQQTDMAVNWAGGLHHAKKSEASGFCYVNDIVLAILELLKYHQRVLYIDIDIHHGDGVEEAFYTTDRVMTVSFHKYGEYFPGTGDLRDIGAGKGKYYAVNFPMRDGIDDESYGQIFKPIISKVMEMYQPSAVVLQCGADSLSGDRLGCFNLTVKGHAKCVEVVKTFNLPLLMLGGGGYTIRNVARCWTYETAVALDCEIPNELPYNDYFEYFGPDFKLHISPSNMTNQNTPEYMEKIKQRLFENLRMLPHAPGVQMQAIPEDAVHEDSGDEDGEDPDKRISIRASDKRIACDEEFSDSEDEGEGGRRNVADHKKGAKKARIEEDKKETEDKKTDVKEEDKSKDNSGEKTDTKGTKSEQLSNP
T1 sequence (Q9UQL6 656-1122 limits assumed): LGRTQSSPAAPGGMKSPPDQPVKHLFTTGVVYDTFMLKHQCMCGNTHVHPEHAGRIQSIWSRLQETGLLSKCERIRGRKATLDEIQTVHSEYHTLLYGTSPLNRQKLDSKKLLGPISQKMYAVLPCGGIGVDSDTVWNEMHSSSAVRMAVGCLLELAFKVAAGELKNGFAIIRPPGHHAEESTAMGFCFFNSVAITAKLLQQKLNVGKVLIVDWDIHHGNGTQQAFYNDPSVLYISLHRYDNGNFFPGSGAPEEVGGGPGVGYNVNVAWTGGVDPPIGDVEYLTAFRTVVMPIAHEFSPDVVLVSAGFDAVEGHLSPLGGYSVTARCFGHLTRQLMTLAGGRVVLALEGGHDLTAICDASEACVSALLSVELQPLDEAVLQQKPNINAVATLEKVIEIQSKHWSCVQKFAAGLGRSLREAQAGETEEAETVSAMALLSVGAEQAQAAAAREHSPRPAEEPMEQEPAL

SMILES | IC50 [1] | IC50 [2] | IC50 [3] | IC50 [4] | IC50 [5]
NC(=O)c1nccnc1N(Cc1ccc(-c2noc(C(F)(F)F)n2)s1)c1cnccn1 [Example GO, 3-[(Pyrazin-2-yl)({5-[5-(trifluoromethyl)-1,2,4-oxadiazol-3-yl]thiophen-2-yl}methyl)amino]pyrazine-2-carboxamide] | ≤ 10000 nM | > 10000 nM | > 10000 nM | > 10000 nM | ≤ 10000 nM
N#Cc1cnnc(N(Cc2ccc(-c3noc(C(F)(F)F)n3)s2)c2cnccn2)c1 [Example EE, 6-[(Pyrazin-2-yl)({5-[5-(trifluoromethyl)-1,2,4-oxadiazol-3-yl]thiophen-2-yl}methyl)amino]pyridazine-4-carbonitrile] | ≤ 1000 nM | > 10000 nM | > 10000 nM | > 10000 nM | ≤ 10000 nM
O=C(c1nccnc1N(Cc1ccc(-c2noc(C(F)(F)F)n2)s1)c1cnccn1)N1CCC1 [Example GP, 3-(Azetidine-1-carbonyl)-N-(pyrazin-2-yl)-N-({5-[5-(trifluoromethyl)-1,2,4-oxadiazol-3-yl]thiophen-2-yl}methyl)pyrazin-2-amine] | ≤ 10000 nM | > 10000 nM | > 10000 nM | > 10000 nM | ≤ 10000 nM
COC1CN(C(=O)c2cnnc(N(Cc3ccc(-c4noc(C(F)(F)F)n4)s3)c3cnccn3)c2)C1 [Example DZ, 5-(3-Methoxyazetidine-1-carbonyl)-N-(pyrazin-2-yl)-N-({5-[5-(trifluoromethyl)-1,2,4-oxadiazol-3-yl]thiophen-2-yl}methyl)pyridazin-3-amine] | ≤ 1000 nM | > 10000 nM | > 10000 nM | > 10000 nM | ≤ 1000 nM
O=C(c1cnnc(N(Cc2ccc(-c3noc(C(F)(F)F)n3)s2)c2cnccn2)c1)N1CCOCC1 [Example EB, 5-(Morpholine-4-carbonyl)-N-(pyrazin-2-yl)-N-({5-[5-(trifluoromethyl)-1,2,4-oxadiazol-3-yl]thiophen-2-yl}methyl)pyridazin-3-amine] | ≤ 1000 nM | > 10000 nM | > 10000 nM | > 10000 nM | ≤ 1000 nM
FC(F)(F)c1cnc(N(Cc2ccc(-c3noc(C(F)(F)F)n3)s2)c2cnccn2)cn1 [Example BK, N-(Pyrazin-2-yl)-5-(trifluoromethyl)-N-({5-[5-(trifluoromethyl)-1,2,4-oxadiazol-3-yl]thiophen-2-yl}methyl)pyrazin-2-amine] | ≤ 10000 nM | > 10000 nM | > 10000 nM | > 10000 nM | ≤ 10000 nM
FC(F)(F)c1nc(-c2ccc(CN(c3cnccn3)c3cnccn3)s2)no1 [Example BA, N-(Pyrazin-2-yl)-N-({5-[5-(trifluoromethyl)-1,2,4-oxadiazol-3-yl]thiophen-2-yl}methyl)pyrazin-2-amine] | ≤ 1000 nM | > 10000 nM | > 10000 nM | > 10000 nM | ≤ 1000 nM
O=C(c1cnnc(N(Cc2ccc(-c3noc(C(F)(F)F)n3)s2)c2cnccn2)c1)N1CCC(F)(F)CC1 [Example FY, 5-(4,4-Difluoropiperidine-1-carbonyl)-N-(pyrazin-2-yl)-N-({5-[5-(trifluoromethyl)-1,2,4-oxadiazol-3-yl]thiophen-2-yl}methyl)pyridazin-3-amine] | ≤ 1000 nM | > 10000 nM | > 10000 nM | > 10000 nM | ≤ 10000 nM
O=C(c1nccnc1N(Cc1ccc(-c2noc(C(F)(F)F)n2)s1)c1cnccn1)N1CC(O)(C(F)(F)F)C1 [Example GQ, 1-{3-[(Pyrazin-2-yl)({5-[5-(trifluoromethyl)-1,2,4-oxadiazol-3-yl]thiophen-2-yl}methyl)amino]pyrazine-2-carbonyl}-3-(trifluoromethyl)azetidin-3-ol] | ≤ 10000 nM | > 10000 nM | > 10000 nM | > 10000 nM | ≤ 10000 nM

Second part, the molecule after the results:

IC50 [1] | IC50 [2] | IC50 [3] | IC50 [4] | IC50 [5] | SMILES
≤ 500 nM | > 10000 nM | > 10000 nM | > 10000 nM | ≤ 500 nM | Cc1nccnc1N(Cc1ccc(-c2noc(C(F)(F)F)n2)s1)c1cnccn1 [Example BE, 3-Methyl-N-(pyrazin-2-yl)-N-({5-[5-(trifluoromethyl)-1,2,4-oxadiazol-3-yl]thiophen-2-yl}methyl)pyrazin-2-amine]
≤ 500 nM | > 10000 nM | > 10000 nM | ≤ 10000 nM | ≤ 500 nM | O=C(c1ccc(N(Cc2ccc(-c3noc(C(F)(F)F)n3)s2)c2cnccn2)nn1)N1CCC12COC2 [Example FH, 6-{6-Oxa-1-azaspiro[3.3]heptane-1-carbonyl}-N-(pyrazin-2-yl)-N-({5-[5-(trifluoromethyl)-1,2,4-oxadiazol-3-yl]thiophen-2-yl}methyl)pyridazin-3-amine]
≤ 500 nM | > 10000 nM | > 10000 nM | > 10000 nM | ≤ 10000 nM | Cc1cncc(N(Cc2ccc(-c3noc(C(F)(F)F)n3)s2)c2cnccn2)n1 [Example BP, 6-Methyl-N-(pyrazin-2-yl)-N-({5-[5-(trifluoromethyl)-1,2,4-oxadiazol-3-yl]thiophen-2-yl}methyl)pyrazin-2-amine]
≤ 500 nM | > 10000 nM | > 10000 nM | > 10000 nM | ≤ 500 nM | Nc1cnnc(N(Cc2ccc(-c3noc(C(F)(F)F)n3)s2)c2cnccn2)c1 [Example FL, N3-(Pyrazin-2-yl)-N3-({5-[5-(trifluoromethyl)-1,2,4-oxadiazol-3-yl]thiophen-2-yl}methyl)pyridazine-3,5-diamine]
≤ 500 nM | > 10000 nM | > 10000 nM | ≤ 10000 nM | ≤ 500 nM | NC(=O)c1ccc(N(Cc2ccc(-c3noc(C(F)(F)F)n3)s2)c2cnccn2)nn1 [Example DQ, 6-[(Pyrazin-2-yl)({5-[5-(trifluoromethyl)-1,2,4-oxadiazol-3-yl]thiophen-2-yl}methyl)amino]pyridazine-3-carboxamide]
≤ 1000 nM | > 10000 nM | > 10000 nM | > 10000 nM | ≤ 10000 nM | FC(F)(F)c1nc(-c2ccc(CN(c3cnccn3)c3ncccn3)s2)no1 [Example AS, N-(Pyrimidin-2-yl)-N-({5-[5-(trifluoromethyl)-1,2,4-oxadiazol-3-yl]thiophen-2-yl}methyl)pyrazin-2-amine]
≤ 500 nM | > 10000 nM | > 10000 nM | ≤ 10000 nM | ≤ 500 nM | O=C(c1ccc(N(Cc2ccc(-c3noc(C(F)(F)F)n3)s2)c2cnccn2)nn1)N1CCOCC1 [Example DS, 6-(Morpholine-4-carbonyl)-N-(pyrazin-2-yl)-N-({5-[5-(trifluoromethyl)-1,2,4-oxadiazol-3-yl]thiophen-2-yl}methyl)pyridazin-3-amine]
